Reference: patent US11013706B2, “Non-pharmaceutical bactericidal composition against Helicobacter pylori” (ECO-GEO BIO-TECHNOLOGY COMPANY LIMITED., priority 2019, dated 2021)

Columns and labels:
[1] = system: Helicobacter pylori strain 26695 (ATCC700392); experiment: Embodiment 4: antibacterial experiment against Helicobacter pylori, malate, lactate, citrate and phosphate buffer combinations with ascorbic acid (viable count); format: cell-based
Description: The bacteria strain used in the experiment was Helicobacter pylori strain 26695 (ATCC700392), and the bacteria were subcultured on Brucella solid medium (Brucella broth 28 g/L, Agar 15 g/L and 10% (v/v) Horse serum, pH 7.0). After the bacteria were seeded by streaking method, they were cultured in a humidified anaerobic chamber at 37° C. for 72 hours using a microaerobic bag (Genbox microaer, BioMerieux, 96125). […] Brucella broth containing 10 mg/mL of NaHCO3 was added to the Helicobacter pylori subcultured for 72 hours, bacterial concentration was adjusted to 10^7-10^8 CFU/mL as a bacterial solution, the bacterial solution was mixed with each culture solution in a 1:1 ratio, and the mixture was incubated at 37° C. in a humidified anaerobic chamber using a micro-aerobic bag (Genbox microaer, BioMerieux, 96125). […] The malate buffer combination and the lactate buffer combination were prepared by mixing malic acid and sodium malate, and lactic acid and sodium lactate, respectively, in the same way. The phosphate buffer solutions were prepared by mixing KH2PO4 and Na2HPO4 in different ratios according to their pH values, and the unmodulable portion was prepared by HCl and NaOH to reach a constant pH value. The pH of the pure medium was adjusted with HCl and NaOH. […] Finally, the viable count of each culture medium was calculated.

[2] = system: Helicobacter pylori strain 26695 (ATCC700392); experiment: Embodiment 1: antibacterial experiment against Helicobacter pylori, citrate and phosphate buffer combinations with or without ascorbic acid (viable count); format: cell-based

O=C1O[C@H]([C@@H](O)CO)C(O)=C1O [ascorbic acid, L-Ascorbic acid]
effect of the ascorbic acid on the sterilization effect of the citrate or the malate buffer combination ([1]; comparing Embodiment 3 and Embodiment 4): synergistic effect
effect of the ascorbic acid added to the phosphate buffer combination or water ([1]; presence of bicarbonate, Embodiments 3 and 4): neither bactericidal effect nor synergistic effect
effect of the ascorbic acid on the sterilization of the citrate buffer combination ([2]; comparing C3 with C3V3000, and C4 with C4V3000): synergistic effect
effect of the ascorbic acid added to the phosphate buffer combination or water ([2]; presence of bicarbonate, Embodiment 1): neither the bactericidal effect nor the synergistic effect
